Assay results taken from article PMC7570844, “Skin Damages—Structure Activity Relationship of Benzimidazole Derivatives Bearing a 5-Membered Ring System” (Molecules, 2020).
Values after ≈ are worked out from the molar mass of the structure shown. Values joined by “and” are separate entries in the source; they are usually repeats but may differ in a detail not shown here. Equal values may be shown once.

What was measured:
vaccinia virus = assay: microbe, parasite or virus in culture; assay type: cell-based; conditions: Orthopoxvirus vaccinia, HEL, read-out: Antiviral EC50
[1] = test system: human T-lymphocyte cells (CEM); assay: Cell proliferation inhibition
[2] = test system: Respiratory syncytial virus; assay: microbe, parasite or virus in culture; assay type: cell-based; conditions: human respiratory syncytial virus, HeLa cells, read-out: Antiviral EC50
[3] = test system: M. gypseum, M. canis, T. mentagrophytes, T. tonsurans and E. floccosum; assay: Antidermatophyte activity, all five dermatophytes taken together; assay type: cell-based
[4] = test system: human melanoma cells (SK-Mel 5); assay: Cell proliferation inhibition
[5] = DPPH radical scavenging test; conditions: mean ± SEM
Epidermophyton floccosum = assay: Antidermatophyte plaque growth inhibition; assay type: cell-based; conditions: for IC50: E. floccosum growth, read-out: IC50; for inhibition at 100 µg/mL: E. floccosum, '+' has no key, read-out: Percent growth inhibition
[6] = test system: herpes simplex virus-1 (KOS); assay: Antiviral activity in HEL cell cultures (CPE, MTS); assay type: cell-based; conditions: Human alphaherpesvirus 1, HEL cells
[7] = UV filtering parameters of compounds in solution (MeOH, 290-400 nm)
[8] = test system: human pancreatic carcinoma cells (Mia Paca-2); assay: Cell proliferation inhibition
[9] = test system: Trichophyton mentagrophytes; assay: Antidermatophyte plaque growth inhibition; assay type: cell-based; conditions: for IC50: T. mentagrophytes growth, read-out: IC50; for inhibition at 100 µg/mL: T. mentagrophytes, '+' has no key, read-out: Percent growth inhibition
[10] = Ferric reducing antioxidant power (FRAP) test; conditions: mean ± SEM
[11] = test system: human cervical carcinoma cells (HeLa); assay: Cell proliferation inhibition
Microsporum canis = assay: Antidermatophyte plaque growth inhibition; assay type: cell-based; conditions: for IC50: M. canis growth, read-out: IC50; for inhibition at 100 µg/mL: M. canis, '+' has no key, read-out: Percent growth inhibition
Adeno virus-2 = assay: Antiviral activity in HEL cell cultures (CPE, MTS); assay type: cell-based; conditions: Adeno virus-2, HEL cells
[12] = test system: herpes simplex virus-2 (G); assay: Antiviral activity in HEL cell cultures (CPE, MTS); assay type: cell-based; conditions: Human alphaherpesvirus 2; Herpes simplex virus-2, HEL cells
[13] = UV filtering parameters of cosmetic formulation on PMMA plates (modified Diffey-Robson); assay type: physicochemical
[14] = test system: HEK293T (Normal Kidney Epithelial Cells); assay: Cell proliferation inhibition, non-cancer control cells; conditions: Homo sapiens, HEK-293T
Microsporum gypseum = assay: Antidermatophyte plaque growth inhibition; assay type: cell-based; conditions: Nannizzia gypsea; for IC50: M. gypseum growth, read-out: IC50; for inhibition at 100 µg/mL: M. gypseum, '+' has no key, read-out: Percent growth inhibition
[15] = test system: herpes simplex virus-1 TK-KOS ACVr; assay: microbe, parasite or virus in culture; assay type: cell-based; conditions: Human alphaherpesvirus 1, HEL, read-out: Antiviral EC50
Human Coronavirus (229E) = assay: microbe, parasite or virus in culture; assay type: cell-based; conditions: HEL, read-out: Antiviral EC50
HeLa cell cultures = conditions: human
[16] = test system: vesicular stomatitis virus; assay: microbe, parasite or virus in culture; assay type: cell-based; conditions: HeLa, read-out: Antiviral EC50
[17] = test system: human embryonic lung (HEL) cell cultures
Coxsackie virus B4 = assay: Antiviral activity in HeLa cell cultures (CPE, MTS); assay type: cell-based; conditions: Enterovirus B; Coxsackie virus B4, HeLa cells
Trichophyton tonsurans = assay: Antidermatophyte plaque growth inhibition; assay type: cell-based; conditions: for IC50: T. tonsurans growth, read-out: IC50; for inhibition at 100 µg/mL: T. tonsurans, '+' has no key, read-out: Percent growth inhibition
[18] = test system: Candida albicans (ATCC 10231); assay: Anti-Candida albicans broth microdilution MIC

c1c[nH]c(-c2nc3ccccc3[nH]2)c1 [Compound 10, 2-(1H-pyrrol-2-yl)-1H-benzimidazole]
EC50 (vaccinia virus): > 100 µM | IC50 [1]: 14 ± 1 µM | EC50 [2]: > 100 µM | Activity on dermatophytes (in words) ([3]; 100 µg/mL): fungicide activity | inhibition at 100 µg/mL ([3]; 100 µg/mL, all five dermatophytes, read-out: Percentage of growth inhibition over the five dermatophytes): ~100% | IC50 ([3]; all five dermatophytes, read-out: IC50 range over the five dermatophytes): 0.97 to 3.8 µg/mL (≈ 5.29 to 20.7 µM) | IC50 [4]: 9.7 ± 1.7 µM | DPPH IC50 [5]: 64.098 µg/mL and 64.10 ± 3.21 µg/mL | IC50 (Epidermophyton floccosum): 1.07 ± 0.03 µg/mL (≈ 5.84 µM) | inhibition at 100 µg/mL (Epidermophyton floccosum): 102 ± 4.92% | EC50 [6]: > 100 µM | UVA/UVB [7]: 0.02 | UVAPF [7]: 1.16±0.05 | λc (critical wavelength) [7]: 325 nm | IC50 [8]: 15 ± 9 µM | IC50 [9]: 1.38 ± 0.08 µg/mL (≈ 7.53 µM) | inhibition at 100 µg/mL [9]: 96.3 ± 2.42% | FRAP [10]: 1085.57 ± 0.88 µmolTE/g | IC50 [11]: 37 µM | IC50 (Microsporum canis): 1.34 ± 0.02 µg/mL (≈ 7.31 µM) | inhibition at 100 µg/mL (Microsporum canis): 96.8 ± 3.56% | EC50 (Adeno virus-2): > 100 µM | EC50 [12]: > 100 µM | melting point: > 250 °C | SPF ([13]; 1% in formulation): 2.44 | UVA/UVB ([13]; 1% in formulation): 0.70 | UVAPF ([13]; 1% in formulation): 1.16 | λc ([13]; 1% in formulation): 341 nm | SPF ([13]; 2% in formulation): 2.72 | UVA/UVB ([13]; 2% in formulation): 0.73 | UVAPF ([13]; 2% in formulation): 1.32 | λc ([13]; 2% in formulation): 357 nm | SPF ([13]; 3% in formulation): 3.06 | UVA/UVB ([13]; 3% in formulation): 0.75 | UVAPF ([13]; 3% in formulation): 1.54 | λc ([13]; 3% in formulation): 364 nm | IC50 [14]: 31 ± 3 µM | IC50 (Microsporum gypseum): 1.53 ± 0.05 µg/mL (≈ 8.35 µM) | inhibition at 100 µg/mL (Microsporum gypseum): 99.1 ± 1.33% | EC50 [15]: > 100 µM | EC50 (Human Coronavirus (229E)): > 100 µM | Cytotoxic concentration (HeLa cell cultures): > 100 µM | EC50 [16]: > 100 µM | Cytotoxic concentration [17]: > 100 µM | EC50 (Coxsackie virus B4): > 100 µM | IC50 (Trichophyton tonsurans): 0.97 ± 0.06 µg/mL (≈ 5.29 µM) | inhibition at 100 µg/mL (Trichophyton tonsurans): 96.97 ± 0.62%

O=C(O)c1ccc2[nH]c(-c3ccc[nH]3)nc2c1 [Compound 13, 2-(1H-pyrrol-2-yl)-1H-benzimidazole-5-carboxylic Acid]
EC50 (vaccinia virus): > 100 µM | IC50 [1]: > 100 µM | EC50 [2]: > 100 µM | IC50 [4]: > 100 µM | DPPH (% Inhibition) ([5]; tested at 1 mg/mL): 33.00 ± 1.28% | inhibition at 100 µg/mL (Epidermophyton floccosum): 21.1 ± 2.14% | EC50 [6]: > 100 µM | SPF [7]: 7.40±0.23 | UVA/UVB [7]: 0.7 | UVAPF [7]: 1.10±0.09 | λc (critical wavelength) [7]: 345 nm | IC50 [8]: > 100 µM | inhibition at 100 µg/mL [9]: < 0% | FRAP [10]: 108.89 ± 2.98 µmolTE/g | IC50 [11]: > 100 µM | inhibition at 100 µg/mL (Microsporum canis): 8.66 ± 1.78% | EC50 (Adeno virus-2): > 100 µM | EC50 [12]: > 100 µM | melting point: > 250 °C | IC50 [14]: > 100 µM | inhibition at 100 µg/mL (Microsporum gypseum): 3.74 ± 1.49% | EC50 [15]: > 100 µM | EC50 (Human Coronavirus (229E)): > 100 µM | Cytotoxic concentration (HeLa cell cultures): > 100 µM | EC50 [16]: > 100 µM | Cytotoxic concentration [17]: > 100 µM | EC50 (Coxsackie virus B4): > 100 µM | inhibition at 100 µg/mL (Trichophyton tonsurans): 4.55 ± 1.34%

OC(Cn1cncn1)(Cn1cncn1)c1ccc(F)cc1F [Fluconazole, reference compound]
IC50 (Epidermophyton floccosum): 0.08 ± 0.005 µg/mL (≈ 0.261 µM) | IC50 [9]: 3.53 ± 0.26 µg/mL (≈ 11.5 µM) | MIC ([18]; 48 h, tested 0.25-128 µg/mL, '-' = no activity): Neither synthesized compounds nor fluconazole showed activity | MIC ([18]; Candida albicans, ATCC10231, 24 h): 0.5 µg/mL (≈ 1.63 µM) | IC50 (Microsporum canis): 29.6 ± 1.84 µg/mL (≈ 96.6 µM) | IC50 (Microsporum gypseum): 18.5 ± 1.23 µg/mL (≈ 60.4 µM) | IC50 (Trichophyton tonsurans): 19.4 ± 0.87 µg/mL (≈ 63.4 µM)
